Test results: patent US8618138B2, “Indole amide derivatives and related compounds for use in the treatment of neurodegenerative diseases” (Katholieke Universiteit Leuven, K.U. Leuven R&D, priority 2009, dated 2013)

Test system: M17-TAU P301L cells
Assay: TAU cytotoxicity assay: LDH leakage of retinoic acid incubated M17-TAU P301L cells
Format: cell-based, human
Conditions: Homo sapiens, 168 h, reduction of LDH activity of retinoic acid incubated M17-TAU P301L cells, 7 days
Description: A TAU expression plasmid was constructed by sub-cloning the cDNA of human TAU-P301 L (encoding for TAU with proline 301 substituted by a leucine residue) into mammalian expression vector pcDNA3.1 resulting in plasmid pcDNA3.1-TAU P301L. Plasmids pcDNA3.1 and pcDNA3.1-TAU P301L were transfected to human neuroblastoma cells ([…]; ATCC No. CRL-2267) and independent clonal lines with the plasmids stably integrated into the genome were selected. […] Expression of the TAU P301L genes in the cell lines was confirmed by Western analysis.
In degenerated or dead cells lactate dehydrogenase (LDH) is leaked out of the cells into the extracellular environment due to a loss of plasma-membrane integrity. This principle was used to determine cytotoxicity by quantifying the level of leaked LDH into the growth medium.
The detailed method for determining TAU cytotoxicity was as follows: From appropriate precultures of M17-3.1 and M17-TAU(P301L) cells were seeded at 2500 cells/cm2 in Optimem Reduced Serum without phenol red (Gibco, Cat. 31985-047) supplemented with 1% fetal calf serum, 1 mM sodium pyruvate, 1× non-essential amino acids, 500 μg/ml G418 0.5× antibiotic/antimycotic. After 3 h of incubation at 37° C./5% CO2 1 volume of Optimem Reduced Serum (same as described above; except without fetal calf serum) supplemented with 2.5 μM retinoic acid (RA) was added. The cells were further incubated for 7 days. Subsequently, LDH activity was determined using Promega Cytotox 96 Non-Radioactive cytotoxicity assay, (Cat. G1780) according the supplier's instructions.
The M17-TAU P301L cell line made it possible to assess the ability of novel compounds to counteract TAU cytotoxicity. […] These measurements were used to calculate EC50 values of table 2.
Exemplary compounds of the present invention are shown in table 2, with their chemical name and their EC50 value (expressed in nM) as determined from example 196 in the Tau-induced toxicity experiment.

For O=C(NCCc1c[nH]c2ccc(Cl)cc12)N1CCC(Cc2ccccc2)C1 (stereo not shown) [Example D75, 3-benzyl-N-(2-(5-chloro-1H-indol-3-yl)ethyl)pyrrolidine-1-carboxamide], which EC50 is on record?
The EC50 was 0.534 µM.

With O=C(NCCc1c[nH]c2ccc(Cl)cc12)C1CCN(C2CCCCC2)C1=O (stereo not shown) [Example D76, N-(2-(5-chloro-1H-indol-3-yl)ethyl)-1-cyclohexyl-2-oxopyrrolidine-3-carboxamide] as the compound, how does the EC50 read?
The EC50 was 0.571 µM.

How did the EC50 turn out when O=C(NCCc1c[nH]c2ccc(Cl)cc12)c1nnc(C2CCCCC2)o1 [Example D77, N-(2-(5-chloro-1H-indol-3-yl)ethyl)-5-cyclohexyl-1,3,4-oxadiazole-2-carboxamide] was run?
The EC50 was 0.595 µM.

O=C(NCCc1c[nH]c2ccc(Cl)cc12)C1CCN(c2ccc(F)cc2)C1=O (stereo not shown) [Example D78, N-(2-(5-chloro-1H-indol-3-yl)ethyl)-1-(4-fluorophenyl)-2-oxopyrrolidine-3-carboxamide] was tested. Which EC50 did it give?
The EC50 was 0.691 µM.

For O=C(NCCc1c[nH]c2ccc(Cl)cc12)C1CCN(c2ccccc2F)C1=O (stereo not shown) [Example D79, N-(2-(5-chloro-1H-indol-3-yl)ethyl)-1-(2-fluorophenyl)-2-oxopyrrolidine-3-carboxamide], which EC50 is on record?
Its EC50 is 0.857 µM.

Which EC50 does the source give for O=C(NCCc1c[nH]c2ccc(Cl)cc12)C1=N[C@@H](Cc2ccccc2)CO1 [Example D80, (S)-4-benzyl-N-(2-(5-chloro-1H-indol-3-yl)ethyl)-4,5-dihydrooxazole-2-carboxamide] here?
The EC50 was 0.915 µM.

Which EC50 does the source give for O=C(NCCc1c[nH]c2ccc(Cl)cc12)C1=N[C@H](Cc2ccccc2)CO1 [Example D81, (R)-4-benzyl-N-(2-(5-chloro-1H-indol-3-yl)ethyl)-4,5-dihydrooxazole-2-carboxamide] here?
Its EC50 is 0.917 µM.

How did the EC50 turn out when CCc1cccc(N2CCC(C(=O)NCCc3c[nH]c4ccc(Cl)cc34)C2=O)c1 (stereo not shown) [Example D82, N-(2-(5-chloro-1H-indol-3-yl)ethyl)-1-(3-ethylphenyl)-2-oxopyrrolidine-3-carboxamide] was run?
The EC50 was 0.939 µM.

For O=C(NCCc1c[nH]c2ccc(Cl)cc12)C1=NC(c2ccccc2)CO1 (stereo not shown) [Example D83, N-(2-(5-chloro-1H-indol-3-yl)ethyl)-4-phenyl-4,5-dihydrooxazole-2-carboxamide], which EC50 is on record?
Its EC50 is 0.979 µM.

How did the EC50 turn out when COc1ccc2[nH]cc(CCNC(=O)c3c(-c4ccccc4)noc3C)c2c1 [Example D109, N-(2-(5-methoxy-1H-indol-3-yl)ethyl)-5-methyl-3-phenylisoxazole-4-carboxamide] was run?
Its EC50 is 3.11 µM.

Which EC50 does the source give for Cc1ccc(Nc2nc(C(=O)NCCc3c[nH]c4ccccc34)cs2)cc1 [Example D110, N-(2-(1H-indol-3-yl)ethyl)-2-(p-tolylamino)thiazole-4-carboxamide] here?
Its EC50 is 0.274 µM.

Cc1onc(-c2ccccc2)c1C(=O)NCCc1c[nH]c2ccc(Cl)cc12 [Example D111, N-(2-(5-chloro-1H-indol-3-yl)ethyl)-5-methyl-3-phenylisoxazole-4-carboxamide] was tested. Which EC50 did it give?
Its EC50 is 0.582 µM.

For Cc1ncoc1C(=O)NCCc1c[nH]c2ccc(Cl)cc12 [Example D112, N-(2-(5-chloro-1H-indol-3-yl)ethyl)-4-methyloxazole-5-carboxamide], which EC50 is on record?
Its EC50 is 1.25 µM.

With Cc1cc(C(=O)NCCc2c[nH]c3ccc(Cl)cc23)no1 [Example D114, N-(2-(5-chloro-1H-indol-3-yl)ethyl)-5-methylisoxazole-3-carboxamide] as the compound, how does the EC50 read?
Its EC50 is 0.03 µM.

For Cc1noc(-c2ccccc2)c1C(=O)NCCc1c[nH]c2ccc(Cl)cc12 [Example D115, N-(2-(5-chloro-1H-indol-3-yl)ethyl)-3-methyl-5-phenylisoxazole-4-carboxamide], which EC50 is on record?
The EC50 was 0.269 µM.

With Cc1nc(C(=O)NCCc2c[nH]c3ccc(Cl)cc23)c(C)o1 [Example D116, N-(2-(5-chloro-1H-indol-3-yl)ethyl)-2,5-dimethyloxazole-4-carboxamide] as the compound, how does the EC50 read?
Its EC50 is 0.306 µM.

For O=C(NCCc1c[nH]c2ccc(Cl)cc12)c1ccnn1-c1ccccc1 [Example D117, N-(2-(5-chloro-1H-indol-3-yl)ethyl)-1-phenyl-1H-pyrazole-5-carboxamide], which EC50 is on record?
Its EC50 is 0.979 µM.

Cn1ccc(C(=O)NCCc2c[nH]c3ccc(Cl)cc23)n1 [Example D118, N-(2-(5-chloro-1H-indol-3-yl)ethyl)-1-methyl-1H-pyrazole-3-carboxamide] was tested. Which EC50 did it give?
Its EC50 is 0.332 µM.

With Cn1nccc1C(=O)NCCc1c[nH]c2ccc(Cl)cc12 [Example D119, N-(2-(5-chloro-1H-indol-3-yl)ethyl)-1-methyl-1H-pyrazole-5-carboxamide] as the compound, how does the EC50 read?
Its EC50 is 1.03 µM.

For CC(C)(C)c1cc(C(=O)NCCc2c[nH]c3ccc(Cl)cc23)n(Cc2ccccc2)n1 [Example D120, 1-benzyl-3-tert-butyl-N-(2-(5-chloro-1H-indol-3-yl)ethyl)-1H-pyrazole-5-carboxamide], which EC50 is on record?
The EC50 was 0.868 µM.

Which EC50 does the source give for O=C(NCCc1c[nH]c2ccc(Cl)cc12)c1cc(CO)on1 [Example D121, N-(2-(5-chloro-1H-indol-3-yl)ethyl)-5-(hydroxymethyl)isoxazole-3-carboxamide] here?
Its EC50 is 0.105 µM.

CCOCc1cc(C(=O)NCCc2c[nH]c3ccc(Cl)cc23)no1 [Example D123, N-(2-(5-chloro-1H-indol-3-yl)ethyl)-5-(ethoxymethyl)isoxazole-3-carboxamide] was tested. Which EC50 did it give?
Its EC50 is 0.019 µM.

CN(C)c1cc(C(=O)NCCc2c[nH]c3ccc(Cl)cc23)no1 [Example D124, N-(2-(5-chloro-1H-indol-3-yl)ethyl)-5-(dimethylamino)isoxazole-3-carboxamide] was tested. Which EC50 did it give?
Its EC50 is 5.29 µM.

With CCN(CC)Cc1cc(C(=O)NCCc2c[nH]c3ccc(Cl)cc23)no1 [Example D125, N-(2-(5-chloro-1H-indol-3-yl)ethyl)-5-((diethylamino)methyl)isoxazole-3-carboxamide] as the compound, how does the EC50 read?
Its EC50 is 0.347 µM.

Which EC50 does the source give for O=C(CCc1c[nH]c2ccc(Cl)cc12)N1CCN(Cc2ccccc2)C1 [Example D126, 1-(3-benzylimidazolidin-1-yl)-3-(5-chloro-1H-indol-3-yl)propan-1-one] here?
The EC50 was 0.357 µM.

Which EC50 does the source give for O=C(NCCc1c[nH]c2ncc(Cl)cc12)c1cc(C(=O)c2cc(F)ccc2F)on1 [Example D127, N-(2-(5-chloro-1H-pyrrolo[2,3-b]pyridin-3-yl)ethyl)-5-(2,5-difluorobenzoyl)isoxazole-3-carboxamide] here?
Its EC50 is 0.436 µM.

How did the EC50 turn out when O=C(NCCc1c[nH]c2ncc(Cl)cc12)c1cc(Cc2cc(F)ccc2F)on1 [Example D128, N-(2-(5-chloro-1H-pyrrolo[2,3-b]pyridin-3-yl)ethyl)-5-(2,5-difluorobenzyl)isoxazole-3-carboxamide] was run?
Its EC50 is 0.105 µM.

With O=C(NCCc1c[nH]c2ccc(Cl)cc12)c1cc(Cc2ccc(F)c(F)c2)on1 [Example D129, N-(2-(5-chloro-1H-indol-3-yl)ethyl)-5-(3,4-difluorobenzyl)isoxazole-3-carboxamide] as the compound, how does the EC50 read?
Its EC50 is 0.008 µM.

With O=C(NCCc1c[nH]c2ccc(Cl)cc12)c1cc(Cc2cccc(F)c2F)on1 [Example D130, N-(2-(5-chloro-1H-indol-3-yl)ethyl)-5-(2,3-difluorobenzyl)isoxazole-3-carboxamide] as the compound, how does the EC50 read?
The EC50 was 0.02 µM.

With O=C(NCCc1c[nH]c2ccc(Cl)cc12)c1cc(Cc2cc(F)cc(F)c2)on1 [Example D131, N-(2-(5-chloro-1H-indol-3-yl)ethyl)-5-(3,5-difluorobenzyl)isoxazole-3-carboxamide] as the compound, how does the EC50 read?
The EC50 was 0.013 µM.

O=C(NCCc1c[nH]c2ccc(Cl)cc12)C1CCN(c2ccc(C(F)(F)F)cc2)C1=O (stereo not shown) [Example D132, N-(2-(5-chloro-1H-indol-3-yl)ethyl)-2-oxo-1-(4-(trifluoromethyl)phenyl)pyrrolidine-3-carboxamide] was tested. Which EC50 did it give?
The EC50 was 0.057 µM.

Which EC50 does the source give for Cc1ccc(N2CCC(C(=O)NCCc3c[nH]c4ccc(Cl)cc34)C2=O)cc1 (stereo not shown) [Example D133, N-(2-(5-chloro-1H-indol-3-yl)ethyl)-2-oxo-1-p-tolylpyrrolidine-3-carboxamide] here?
The EC50 was 0.046 µM.

With CC(=O)c1ccc(N2CCC(C(=O)NCCc3c[nH]c4ccc(Cl)cc34)C2=O)cc1 (stereo not shown) [Example D134, 1-(4-acetylphenyl)-N-(2-(5-chloro-1H-indol-3-yl)ethyl)-2-oxopyrrolidine-3-carboxamide] as the compound, how does the EC50 read?
The EC50 was 0.086 µM.

O=C(NCCc1c[nH]c2ccc(C(F)(F)F)cc12)c1cc(Cc2cc(F)ccc2F)on1 [Example D135, 5-(2,5-difluorobenzyl)-N-(2-(5-(trifluoromethyl)-1H-indol-3-yl)ethyl)isoxazole-3-carboxamide] was tested. Which EC50 did it give?
Its EC50 is 0.144 µM.

Cc1cc2c(CCNC(=O)c3cc(Cc4cc(F)ccc4F)on3)c[nH]c2cc1Cl [Example D136, N-(2-(6-chloro-5-methyl-1H-indol-3-yl)ethyl)-5-(2,5-difluorobenzyl)isoxazole-3-carboxamide] was tested. Which EC50 did it give?
The EC50 was 0.741 µM.

Which EC50 does the source give for N#Cc1ccc2[nH]cc(CCNC(=O)c3cc(Cc4cc(F)ccc4F)on3)c2c1 [Example D137, N-(2-(5-cyano-1H-indol-3-yl)ethyl)-5-(2,5-difluorobenzyl)isoxazole-3-carboxamide] here?
The EC50 was 0.032 µM.

How did the EC50 turn out when O=C(c1cc(Cc2cc(F)ccc2F)on1)N1CCC(c2c[nH]c3ccccc23)CC1 [Example D138, (4-(1H-indol-3-yl)piperidin-1-yl)(5-(2,5-difluorobenzyl)isoxazol-3-yl)methanone] was run?
Its EC50 is 0.418 µM.
